Test results taken from patent publication US9346798B2, “Dihydrobenzoxazine and tetrahydroquinoxaline sodium channel inhibitors” (AMGEN INC., priority 2012, dated 2016).

How the values were obtained:
Format in all cases: cell-based
Nav 1.7 [1] = biological target: T1, Nav 1.7 (Homo sapiens (Human), UniProt Q15858); assay: Nav 1.7 in vitro PX assay, PatchXpress whole cell voltage clamp; details: HEK 293 cells stably transfected with human Nav1.7; partially inactivated state (20 to 50% inactivation)
T1 sequence (Q15858 whole entry): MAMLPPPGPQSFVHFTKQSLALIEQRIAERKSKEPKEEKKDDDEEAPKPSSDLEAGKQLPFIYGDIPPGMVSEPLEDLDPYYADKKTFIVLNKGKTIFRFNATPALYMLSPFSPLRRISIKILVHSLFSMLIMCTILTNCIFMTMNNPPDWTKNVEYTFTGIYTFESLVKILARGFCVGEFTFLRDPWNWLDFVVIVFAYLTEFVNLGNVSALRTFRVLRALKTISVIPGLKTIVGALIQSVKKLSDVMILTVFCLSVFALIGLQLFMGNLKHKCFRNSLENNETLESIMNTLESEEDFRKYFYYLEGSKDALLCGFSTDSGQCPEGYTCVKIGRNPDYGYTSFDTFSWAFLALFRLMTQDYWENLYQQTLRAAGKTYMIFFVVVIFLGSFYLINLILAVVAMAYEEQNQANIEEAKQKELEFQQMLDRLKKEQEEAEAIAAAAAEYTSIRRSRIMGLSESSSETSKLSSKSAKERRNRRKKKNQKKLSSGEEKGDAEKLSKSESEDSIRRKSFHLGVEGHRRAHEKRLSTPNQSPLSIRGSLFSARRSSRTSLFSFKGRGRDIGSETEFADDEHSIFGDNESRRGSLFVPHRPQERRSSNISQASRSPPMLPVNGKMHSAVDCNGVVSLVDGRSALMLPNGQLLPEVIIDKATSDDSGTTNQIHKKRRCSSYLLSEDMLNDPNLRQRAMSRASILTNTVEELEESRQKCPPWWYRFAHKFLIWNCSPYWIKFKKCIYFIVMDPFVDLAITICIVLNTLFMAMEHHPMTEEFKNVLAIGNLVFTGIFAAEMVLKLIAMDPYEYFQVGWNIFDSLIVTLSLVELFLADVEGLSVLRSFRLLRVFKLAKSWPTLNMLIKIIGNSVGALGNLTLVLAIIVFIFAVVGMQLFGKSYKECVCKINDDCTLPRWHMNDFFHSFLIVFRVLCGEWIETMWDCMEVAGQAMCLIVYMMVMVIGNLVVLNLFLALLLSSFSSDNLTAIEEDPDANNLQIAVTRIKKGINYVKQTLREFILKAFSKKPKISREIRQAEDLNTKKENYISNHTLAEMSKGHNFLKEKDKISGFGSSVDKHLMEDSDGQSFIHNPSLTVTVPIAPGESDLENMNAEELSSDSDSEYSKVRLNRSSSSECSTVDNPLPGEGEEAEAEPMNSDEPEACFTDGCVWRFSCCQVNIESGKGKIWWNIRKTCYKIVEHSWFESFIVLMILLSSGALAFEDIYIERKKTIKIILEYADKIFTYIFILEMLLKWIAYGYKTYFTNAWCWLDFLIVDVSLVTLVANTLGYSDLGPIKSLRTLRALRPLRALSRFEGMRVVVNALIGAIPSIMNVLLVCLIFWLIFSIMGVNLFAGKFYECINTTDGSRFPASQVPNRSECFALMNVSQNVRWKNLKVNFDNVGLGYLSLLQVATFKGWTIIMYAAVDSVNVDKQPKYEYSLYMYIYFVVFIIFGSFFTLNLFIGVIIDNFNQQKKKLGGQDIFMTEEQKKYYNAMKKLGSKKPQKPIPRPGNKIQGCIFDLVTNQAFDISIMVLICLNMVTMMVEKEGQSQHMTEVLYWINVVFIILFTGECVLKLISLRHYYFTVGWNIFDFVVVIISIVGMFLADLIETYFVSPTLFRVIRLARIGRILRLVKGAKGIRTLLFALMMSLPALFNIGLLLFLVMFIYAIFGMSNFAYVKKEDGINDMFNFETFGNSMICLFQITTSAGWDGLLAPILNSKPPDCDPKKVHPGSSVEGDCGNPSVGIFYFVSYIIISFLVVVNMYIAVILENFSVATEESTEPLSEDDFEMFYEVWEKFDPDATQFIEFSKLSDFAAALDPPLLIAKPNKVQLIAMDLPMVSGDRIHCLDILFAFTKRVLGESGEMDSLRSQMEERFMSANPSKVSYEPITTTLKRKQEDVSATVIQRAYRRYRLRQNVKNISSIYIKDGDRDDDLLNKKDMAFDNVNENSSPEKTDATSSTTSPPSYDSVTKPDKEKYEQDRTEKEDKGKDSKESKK
How it was run: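 Partially inactivated channels (20–50% inactivation at holding potential) were probed on automated patch clamp in stably transfected HEK293 cells, stepping to −10 mV for 20 msec every 10 s (0.1 Hz).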

Nav 1.5 = Nav 1.5 (Homo sapiens (Human), UniProt Q14524); assay: Nav 1.5 in vitro assay, IonWorks Quattro (IWQ) population patch-clamp; details: HEK 293 cells stably transfected with Nav 1.5; 26th pulse to -20 mV
Chain of Nav 1.5 (Q14524 whole entry): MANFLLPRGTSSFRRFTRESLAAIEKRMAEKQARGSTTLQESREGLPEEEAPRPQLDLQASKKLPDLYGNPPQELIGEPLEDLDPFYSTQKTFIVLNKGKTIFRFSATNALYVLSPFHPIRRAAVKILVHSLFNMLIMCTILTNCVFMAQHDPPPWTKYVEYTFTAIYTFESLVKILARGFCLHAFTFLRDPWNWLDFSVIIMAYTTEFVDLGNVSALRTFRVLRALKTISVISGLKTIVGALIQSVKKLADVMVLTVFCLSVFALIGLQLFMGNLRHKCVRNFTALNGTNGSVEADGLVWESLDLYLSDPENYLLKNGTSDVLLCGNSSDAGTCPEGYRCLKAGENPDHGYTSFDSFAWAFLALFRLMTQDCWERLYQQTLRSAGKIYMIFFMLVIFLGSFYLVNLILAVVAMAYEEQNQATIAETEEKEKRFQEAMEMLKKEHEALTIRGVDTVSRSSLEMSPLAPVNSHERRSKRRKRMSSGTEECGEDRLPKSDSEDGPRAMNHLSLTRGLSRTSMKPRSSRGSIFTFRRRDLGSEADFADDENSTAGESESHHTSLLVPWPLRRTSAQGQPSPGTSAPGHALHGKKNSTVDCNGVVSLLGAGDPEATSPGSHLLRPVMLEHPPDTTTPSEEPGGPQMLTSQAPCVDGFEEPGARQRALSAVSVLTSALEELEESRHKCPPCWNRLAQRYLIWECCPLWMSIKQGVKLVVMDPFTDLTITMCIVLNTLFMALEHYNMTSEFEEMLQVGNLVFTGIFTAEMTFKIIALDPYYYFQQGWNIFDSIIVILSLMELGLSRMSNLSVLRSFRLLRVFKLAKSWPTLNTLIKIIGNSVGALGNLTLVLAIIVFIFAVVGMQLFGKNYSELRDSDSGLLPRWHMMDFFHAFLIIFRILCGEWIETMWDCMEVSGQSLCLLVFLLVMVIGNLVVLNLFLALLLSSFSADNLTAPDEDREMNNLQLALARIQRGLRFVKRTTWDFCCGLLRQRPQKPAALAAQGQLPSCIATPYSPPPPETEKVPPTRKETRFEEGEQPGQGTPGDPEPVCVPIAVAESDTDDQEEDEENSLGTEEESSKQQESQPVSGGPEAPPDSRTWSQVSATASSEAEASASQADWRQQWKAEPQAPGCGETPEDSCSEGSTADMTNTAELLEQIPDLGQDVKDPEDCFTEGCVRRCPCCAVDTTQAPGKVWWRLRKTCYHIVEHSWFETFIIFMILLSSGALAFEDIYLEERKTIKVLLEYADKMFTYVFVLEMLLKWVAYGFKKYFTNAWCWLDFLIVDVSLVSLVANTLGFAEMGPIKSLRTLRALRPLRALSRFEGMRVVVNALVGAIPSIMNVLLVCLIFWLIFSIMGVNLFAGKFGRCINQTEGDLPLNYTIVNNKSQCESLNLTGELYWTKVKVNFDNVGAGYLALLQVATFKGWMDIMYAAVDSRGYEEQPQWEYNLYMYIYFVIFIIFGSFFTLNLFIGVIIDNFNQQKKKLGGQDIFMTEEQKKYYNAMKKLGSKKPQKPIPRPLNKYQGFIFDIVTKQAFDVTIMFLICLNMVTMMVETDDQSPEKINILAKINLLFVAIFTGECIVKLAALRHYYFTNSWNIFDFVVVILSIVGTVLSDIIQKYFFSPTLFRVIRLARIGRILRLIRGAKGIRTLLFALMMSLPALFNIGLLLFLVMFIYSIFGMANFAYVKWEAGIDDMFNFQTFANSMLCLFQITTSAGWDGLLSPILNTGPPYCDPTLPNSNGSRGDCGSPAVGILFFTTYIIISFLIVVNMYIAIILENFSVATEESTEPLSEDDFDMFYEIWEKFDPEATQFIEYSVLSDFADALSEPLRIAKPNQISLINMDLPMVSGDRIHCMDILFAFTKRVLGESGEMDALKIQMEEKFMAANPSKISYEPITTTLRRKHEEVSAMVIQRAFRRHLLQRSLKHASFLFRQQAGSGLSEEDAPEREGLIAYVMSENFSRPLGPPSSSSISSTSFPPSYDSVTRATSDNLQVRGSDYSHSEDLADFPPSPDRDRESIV

Nav 1.7 [2] = biological target: T1, Nav 1.7; assay: Nav 1.7 in vitro assay, IonWorks Quattro (IWQ) population patch-clamp; details: HEK 293 cells stably transfected with Nav 1.7; 26th pulse to -20 mV

Q: For `O=S(=O)(Nc1nccs1)c1ccc2c(c1)OCCN2c1ccccc1C1CCOCC1` [Example 149, 4-(2-(Tetrahydro-2H-Pyran-4-Yl)Phenyl)-N-(Thiazol-2-Yl)-3,4-Dihydro-2H-Benzo[B][1,4]Oxazine-7-Sulfonamide], which IC50 (Nav 1.7 [1]) is on record?
A: 2550 nM

Q: And the IC50 (Nav 1.5)?
A: > 10000 nM

Q: And the IC50 (Nav 1.7 [2])?
A: 198 nM
